Assay results as given in patent US20260248950A1, “ANTIMICROBIAL PEPTIDE DELIVERY SYSTEM AND MANUFACTURING METHOD BASED ON GOLD NANOPARTICLE-APTAMER CONJUGATE” (NES BIOTECHNOLOGY CO., LTD., priority 2022, published 2026).
Converted amounts (≈) assume the structure as drawn. Like-named read-outs stand apart in the source and are kept apart here. Peptide text beside a SMILES is read from it. {SH} = thiol modification, used to bind gold nanoparticles

Key:
Staphylococcus aureus = experiment: microbe, parasite or virus in culture; format: cell-based
Procedure: (§1) An experiment was conducted to determine the minimum inhibitory concentration (MIC) for multi-resistant strains in an antimicrobial activity test. Pseudomonas aeruginosa, Acinetobacter baumannii, and Staphylococcus aureus were cultured in LB medium at 1×10^3 colony-forming units (CFU)/ml. Each strain was treated with WLBU2 peptide and antibiotics, such as ampicillin and erythromycin, at concentrations of 2, 4, 8, 16, 32, 64, 128, 256, and 512 μM, respectively, and then incubated at 37° C. for 18 to 24 hours.
(§2) The minimum inhibitory concentration (MIC) was determined as the […].

Pseudomonas aeruginosa = experiment: microbe, parasite or virus in culture; format: cell-based
Procedure: as §1, §2

Acinetobacter baumannii = experiment: microbe, parasite or virus in culture; format: cell-based
Procedure: as §1, §2

WLBU2 = experiment: SELEX aptamer selection, sequencing fold change of samples binding to WLBU2 vs control; details: samples binding to WLBU2 compared to the control group; SELEX repeated 11 times
Procedure: Aptamers specific to the antimicrobial peptide WLBU2 were developed using the SELEX (Systematic Evolution of Ligands by Exponential Enrichment) method. The SELEX process was repeated a total of 11 times, and the optimal aptamers with high binding affinity to WLBU2 were selected. The aptamer selection process was conducted according to the procedure illustrated in FIG. 1.
Among all the sequences confirmed through sequencing, four representative sequences showing a fold change greater than 2-fold in the samples binding to WLBU2 compared to the control group were developed.

[1] = Pseudomonas aeruginosa, LB medium, 1×10^3 CFU/ml, 37° C., 18 to 24 hours

Molecule: CC1(C)S[C@@H]2[C@H](NC(=O)[C@H](N)c3ccccc3)C(=O)N2[C@H]1C(=O)O [Ampicillin, ampicillin]
- MIC (Staphylococcus aureus; Staphylococcus aureus): > 256 µM
- MIC (Pseudomonas aeruginosa; [1]): > 64 µM
- MIC (Acinetobacter baumannii; Acinetobacter baumannii): > 256 µM

Molecule: CC(C)[C@H](NC(=O)[C@H](Cc1c[nH]c2ccccc12)NC(=O)[C@H](CCCNC(=N)N)NC(=O)[C@H](CCCNC(=N)N)NC(=O)[C@@H](NC(=O)[C@@H](NC(=O)[C@H](CCCNC(=N)N)NC(=O)[C@@H](NC(=O)[C@@H](NC(=O)[C@H](CCCNC(=N)N)NC(=O)[C@H](CCCNC(=N)N)NC(=O)[C@@H](NC(=O)[C@H](Cc1c[nH]c2ccccc12)NC(=O)[C@H](CCCNC(=N)N)NC(=O)[C@H](CCCNC(=N)N)NC(=O)[C@@H](NC(=O)[C@H](CCCNC(=N)N)NC(=O)[C@H](CCCNC(=N)N)NC(=O)[C@@H](NC(=O)[C@H](Cc1c[nH]c2ccccc12)NC(=O)[C@H](CCCNC(=N)N)NC(=O)[C@@H](N)CCCNC(=N)N)C(C)C)C(C)C)C(C)C)C(C)C)C(C)C)C(C)C)C(C)C)C(=O)N[C@@H](CCCNC(=N)N)C(=O)N[C@@H](CCCNC(=N)N)C(=O)O [WLBU2] (H-RRWVRRVRRWVRRVVRVVRRWVRR-OH; N-terminus and C-terminus assumed)
- MIC (Staphylococcus aureus; read-out: MIC): 4 µM (≈ 13.6 µg/mL)
- MIC (Pseudomonas aeruginosa): 4 µM (≈ 13.6 µg/mL)
- MIC (Acinetobacter baumannii; read-out: MIC): 8 µM (≈ 27.2 µg/mL)

Molecule: CC[C@H]1OC(=O)[C@H](C)[C@@H](O[C@H]2C[C@@](C)(OC)[C@@H](O)[C@H](C)O2)[C@H](C)[C@@H](O[C@@H]2O[C@H](C)C[C@H](N(C)C)[C@H]2O)[C@](C)(O)C[C@@H](C)C(=O)[C@H](C)[C@@H](O)[C@]1(C)O [Erythromycin, erythromycin]
- MIC (Staphylococcus aureus; Staphylococcus aureus, LB medium, 1×10^3 CFU/ml, 37° C., 18 to 24 hours, read-out: MIC): > 128 µM
- MIC (Pseudomonas aeruginosa; [1]): > 64 µM
- MIC (Acinetobacter baumannii; Acinetobacter baumannii, LB medium, 1×10^3 CFU/ml, 37° C., 18 to 24 hours, read-out: MIC): > 256 µM

B1: WLBU2-R: SELEX aptamer specific to WLBU2, SEQ No. 1 in Table 2; thiol-modified at 3′-terminal for binding to gold nanoparticles (nucleic acid)
DNA: AAAACGACGGCCAGTGCGCGCGCTTTGCTTGTGTGAGCATTGCTTTTGCATTATTGGTTTGGTTGGTGTGGTTCGTGCGCGCCATGGTCATAGCCTGT
modifications: DNA, 3' {SH}, backbone and methylation of C not given here
- FoldChange (WLBU2): 2.2

B2: WLBU2-R-1: SELEX aptamer specific to WLBU2, SEQ No. 2 (nucleic acid)
DNA: AAAACGACGGCCAGTCTTTCGCGGGGTCTGGGGTTGGGGTTGTGGGTTAATTGCACTTCGAAATGCATGGTCATAGCTGT
modifications: listed as DNA, chemistry not fully specified
- FoldChange (WLBU2): 3.28

B3: WLBU2-R-3: SELEX aptamer specific to WLBU2, SEQ No. 4 (nucleic acid)
DNA: AAAACGACGGCCAGTGCGCGCGCTTTGCTTGTGTGAGCATTGCTTTTGCATTATTGGTTTGGTTGGTGTGGTTCGTGCGCGCCATGGTCATAGCTGT
modifications: listed as DNA, chemistry not fully specified
- FoldChange (WLBU2): 2.7

B4: WLBU2-R-2: SELEX aptamer specific to WLBU2, SEQ No. 3 (nucleic acid)
DNA: AAAACGACGGCCAGTGGCTGGTAGGTTTGGGTGGTTTGGTTGGGATTCGGTTGGTTGGTACCAGCCATGGTCATAGCTGT
modifications: listed as DNA, chemistry not fully specified
- FoldChange (WLBU2): 3.67
